In the assay the target is BTK (Homo sapiens, UniProt Q06187). Put plainly: biochemical.
Where [1] appears, read: read-out: BTK inhibition (%), 0.75 uM BTK, […] probe 3l, 15 min preincubation.

The structures appear in SMILES notation. Read-outs that look alike come from different tables or passages of the source.

BTK, sequence (Q06187 402-655 limits assumed): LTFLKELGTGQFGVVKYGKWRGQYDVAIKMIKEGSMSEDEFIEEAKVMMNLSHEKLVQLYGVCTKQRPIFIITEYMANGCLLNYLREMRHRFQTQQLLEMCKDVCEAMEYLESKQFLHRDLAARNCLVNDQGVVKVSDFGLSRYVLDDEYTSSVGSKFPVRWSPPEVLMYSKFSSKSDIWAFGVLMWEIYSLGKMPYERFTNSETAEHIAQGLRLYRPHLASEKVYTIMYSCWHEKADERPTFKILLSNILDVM

As a reminder, the inhibition is the drop in the measured response relative to a control, in per cent. As to `Cc1cccc(Nc2ccncc2S(=O)(=O)NC(=O)NC(C)C)c1` [PCM-0086313], the inhibition at 10 µM under setting [1] was -4.3%.
Turning to `COc1c(N2CCNC(C)C2)c(F)cc2c(=O)c(C(=O)O)cn(C3CC3)c12` (centres unmarked) [PCM-0086315], the inhibition at 10 µM under setting [1] is -40.5%.
The same measure, in the same setting: with `COc1ccccc1Oc1c(NS(=O)(=O)c2ccc(C(C)(C)C)cc2)nc(-c2ncccn2)nc1OCCO` [PCM-0086316] the figure was -7.8%; with `CCCc1nc(C(C)(C)O)c(C(=O)OCc2oc(=O)oc2C)n1Cc1ccc(-c2ccccc2-c2nn[nH]n2)cc1` [PCM-0086318], 0.8%.
On the same count and under the same terms, with `CC(C)Cn1cnc2c(N)nc3ccccc3c21` [PCM-0086321] the figure was -2.6%; with `CCCNC(C)C(=O)Nc1c(C)csc1C(=O)OC` (centres unmarked) [PCM-0086324], -13.2%; with `CNNCc1ccc(C(=O)NC(C)C)cc1` [PCM-0086325], -17.9%.
The same measure, in the same setting: with `Cn1c([N+](=O)[O-])cnc1COC(N)=O` [PCM-0086329] the figure was -12.5%; with `CCN[C@H]1C[C@H](C)S(=O)(=O)c2sc(S(N)(=O)=O)cc21` [PCM-0086331], 10.2%; with `CC1CCc2c(N3CCC(O)CC3)c(F)cc3c(=O)c(C(=O)O)cn1c23` (centres unmarked) [PCM-0086338], 1.6%.
On to `COc1ccc(C[C@@H](C)NC[C@H](O)c2ccc(O)c(NC=O)c2)cc1` [PCM-0086341], for which the inhibition at 10 µM under setting [1] came out at 7%.
As for `COc1cc2ncnc(Nc3ccc(F)c(Cl)c3)c2cc1OCCCN1CCOCC1` [PCM-0086349], the inhibition at 10 µM under setting [1] is 2.1%.
As for `O=C(NC(Cc1cc(=O)[nH]c2ccccc12)C(=O)O)c1ccc(Cl)cc1` (centres unmarked) [PCM-0086359], under setting [1], the inhibition at 10 µM came out at 4.7%.
For `COC(=O)C1=C(C#N)NC(C)=C(C(=O)OC(C)C)C1c1cccc([N+](=O)[O-])c1` (centres unmarked) [PCM-0086361], the inhibition at 10 µM under setting [1] was found to be 14.8%.
Take `Nc1ccc(S(N)(=O)=O)cc1` [PCM-0086364]: under setting [1], the inhibition at 10 µM was -9.3%.
Still for that read-out and setting: as for `O=C(O)c1cccnc1` [PCM-0086368], the figure is 3.1%.
Still for that read-out and setting: as for `CNC[C@H](O)[C@@H](O)[C@H](O)[C@H](O)CO` [PCM-0086373], the figure is -10.1%.
The same measure, in the same setting: as for `NS(=O)(=O)c1cc(Cl)c(Cl)c(S(N)(=O)=O)c1` [PCM-0086380], the figure is -4.7%; as for `CCC1=C(C)CN(C(=O)NCCc2ccc(S(=O)(=O)NC(=O)NC3CCC(C)CC3)cc2)C1=O` (centres unmarked) [PCM-0086384], 8.6%.
`Nc1nc2c(c(=O)[nH]1)N(C=O)C(CNc1ccc(C(=O)N[C@@H](CCC(=O)O)C(=O)O)cc1)CN2` (some centres unmarked) [PCM-0086396]: the inhibition at 10 µM under setting [1] was -17.9%.
On the same count and under the same terms, as for `O=C(O)c1cc(=O)c2c(OCC(O)COc3cccc4oc(C(=O)O)cc(=O)c34)cccc2o1` [PCM-0086401], the figure is 2.6%; as for `COC(=O)Nc1nc2ccc(C(=O)c3ccc(F)cc3)cc2[nH]1` [PCM-0086402], -3.4%.
As to `Nc1ccc(C(=O)NCC(=O)O)cc1` [PCM-0086407], the inhibition at 10 µM under setting [1] came to 28%.
`CC(C(=O)O)c1ccc(C(=O)c2cccs2)cc1` (centres unmarked) [PCM-0086408]: the inhibition at 10 µM under setting [1] was -1.4%.
Still for that read-out and setting: with `CC(=O)OCC(=O)[C@@]12N=C(C)O[C@@H]1C[C@H]1[C@@H]3CCC4=CC(=O)C=C[C@]4(C)[C@H]3[C@@H](O)C[C@@]12C` [PCM-0086410] the figure was -7.6%.
On the same count and under the same terms, as for `Cc1nnc(NS(=O)(=O)c2ccc(N)cc2)s1` [PCM-0086420], the figure is -10.9%; as for `CC(c1cc2ccccc2s1)N(O)C(N)=O` (centres unmarked) [PCM-0086421], -0.7%.
The same measure, in the same setting: with `Cc1c(Nc2ncccc2C(=O)O)cccc1C(F)(F)F` [PCM-0086423] the figure was -9%; with `COC(=O)C1=C(C)NC(C)=C(C(=O)OCC(C)C)C1c1ccccc1[N+](=O)[O-]` (centres unmarked) [PCM-0086426], 31.1%; with `COc1cc(C)c(/C=C/C(C)=C/C=C/C(C)=C/C(=O)O)c(C)c1C` [PCM-0086430], 10.9%.
Regarding `Nc1nc(N)nc(-c2cc(Cl)ccc2Cl)n1` [PCM-0086432], the inhibition at 10 µM under setting [1] was 4.3%.
The same measure, in the same setting: as for `Nc1nc(NC2CC2)c2ncn([C@H]3C=C[C@@H](CO)C3)c2n1` [PCM-0086436], the figure is 9.4%; as for `NS(=O)(=O)c1cc2c(cc1Cl)NC(C(Cl)Cl)NS2(=O)=O` (centres unmarked) [PCM-0086441], -14%; as for `COc1ccc2cc(CCC(C)=O)ccc2c1` [PCM-0086446], 7.6%.
The same measure, in the same setting: as for `CC/C(=C(/CC)c1ccc(O)cc1)c1ccc(O)cc1` [PCM-0086456], the figure is -26.5%; as for `Oc1ccc(OCc2ccccc2)cc1` [PCM-0086466], 8.6%.
On to `O=P1(NCCCl)OCCCN1CCCl` (centres unmarked) [PCM-0086467], for which the inhibition at 10 µM (read-out: BTK inhibition (%)) was -10.3%.
As to `CO[C@@H]1[C@@H](OC(N)=O)[C@@H](O)[C@H](Oc2ccc3c(O)c(NC(=O)c4ccc(O)c(CC=C(C)C)c4)c(=O)oc3c2C)OC1(C)C` [PCM-0086469], under setting [1], the inhibition at 10 µM stood at 7%.
Consider `CC(C(=O)O)c1ccc2c(c1)Cc1cccnc1O2` (centres unmarked) [PCM-0086477], for which the inhibition at 10 µM under setting [1] is -11.7%.
For `Cc1ncc([N+](=O)[O-])n1CC(C)O` (centres unmarked) [PCM-0086479], the inhibition at 10 µM under setting [1] is -3.9%.
Turning to `Nc1ccc(S(=O)(=O)Nc2ccccn2)cc1` [PCM-0086480], the inhibition at 10 µM under setting [1] is -13.6%.
Still for that read-out and setting: with `CCCCCCCN(CC)CCCC(O)c1ccc(NS(C)(=O)=O)cc1` (centres unmarked) [PCM-0086483] the figure was -17.1%.
The same measure, in the same setting: with `CCS(=O)(=O)CCn1c([N+](=O)[O-])cnc1C` [PCM-0086486] the figure was -4.7%; with `CCCC[N+]1(C)[C@@H]2CC(OC(=O)[C@H](CO)c3ccccc3)C[C@H]1[C@@H]1O[C@@H]12` (some centres unmarked) [PCM-0086491], -17.9%; with `COc1cnc(NS(=O)(=O)c2ccc(N)cc2)nc1` [PCM-0086492], 5.4%.
On the same count and under the same terms, with `CCc1c2c(nc3ccc(OC(=O)N4CCC(N5CCCCC5)CC4)cc13)-c1cc3c(c(=O)n1C2)COC(=O)[C@]3(O)CC` [PCM-0086493] the figure was 6.9%; with `CNC(=C[N+](=O)[O-])NCCSCc1csc(CN(C)C)n1` [PCM-0086495], 2.1%; with `CCOC(=O)[C@H](CCc1ccccc1)N[C@@H](C)C(=O)N1Cc2ccccc2C[C@H]1C(=O)O` [PCM-0086504], -16.3%.
On to `Cc1ccnc(NS(=O)(=O)c2ccc(N)cc2)n1` [PCM-0086511], for which the inhibition at 10 µM under setting [1] came to 1.6%.
For `COc1ccccc1OCC(O)CO` (centres unmarked) [PCM-0086515], the inhibition at 10 µM under setting [1] is -2.3%.
Still for that read-out and setting: with `Nc1[nH]c(=O)ncc1F` [PCM-0086523] the figure was -6.2%.
`C[C@@]12N[C@@H](Cc3ccccc31)c1ccccc12` [PCM-0086525]: the inhibition at 10 µM (read-out: BTK inhibition (%)) was -25.7%.
On to `CCC(=O)O[C@]1(C(=O)CCl)[C@@H](C)C[C@H]2[C@@H]3CCC4=CC(=O)C=C[C@]4(C)[C@@]3(F)[C@@H](O)C[C@@]21C` [PCM-0086533], for which, under setting [1], the inhibition at 10 µM was 3.4%.
`Cn1cc[nH]c1=S` [PCM-0086540]: the inhibition at 10 µM under setting [1] was found to be 14.8%.
The same measure, in the same setting: with `CC(O)(P(=O)(O)O)P(=O)(O)O` [PCM-0086550] the figure was -27.2%; with `C[n+]1ccccc1/C=N/O` [PCM-0086551], -18.5%.
In the case of `CC(COc1ccccc1)N(CCCl)Cc1ccccc1` (centres unmarked) [PCM-0086553], the inhibition at 10 µM under setting [1] was determined as 17.1%.
Take `O=c1cc(-c2ccc(O)c(O)c2)oc2cc(O)cc(O)c12` [PCM-0086559]: the inhibition at 10 µM under setting [1] is 84.8%.
With `CN(C)CCOc1ccc(/C(=C(/CCCl)c2ccccc2)c2ccccc2)cc1` [PCM-0086582], under setting [1], the inhibition at 10 µM is 4.1%.
In the case of `COc1ccc(-c2coc3cc(O)cc(O)c3c2=O)cc1` [PCM-0086643], under setting [1], the inhibition at 10 µM stood at 2.3%.
With `OCc1ccccc1O[C@@H]1O[C@H](CO)[C@@H](O)[C@H](O)[C@H]1O` [PCM-0086703], under setting [1], the inhibition at 10 µM was -7.6%.
`COc1ccc(-c2cc(=O)c3c(OC)c(OC)c(OC)c(OC)c3o2)cc1` [PCM-0086738]: the inhibition at 10 µM under setting [1] was -26.9%.
Still for that read-out and setting: as for `O=C1N=C(O)CN1/N=C/c1ccc(-c2ccc([N+](=O)[O-])cc2)o1` [PCM-0086748], the figure is 28%; as for `O=C(O)C1=CO[C@@H](O[C@@H]2O[C@H](CO)[C@@H](O)[C@H](O)[C@H]2O)[C@@H]2C(CO)=CC[C@H]12` [PCM-0086855], -2.8%; as for `O=C(O)c1cc(O)c2c(c1)[C@@H]([C@H]1c3cc(C(=O)O)cc(O)c3C(=O)c3c(O[C@@H]4O[C@H](CO)[C@@H](O)[C@H](O)[C@H]4O)cccc31)c1cccc(O[C@@H]3O[C@H](CO)[C@@H](O)[C@H](O)[C@H]3O)c1C2=O` [PCM-0086913], 84.1%.
On the same count and under the same terms, as for `O=c1c(O)c(-c2ccc(O)cc2)oc2cc(O)cc(O)c12` [PCM-0087037], the figure is 67.7%; as for `O=C(/C=C/c1ccc(O)c(O)c1)O[C@@H]1C[C@](O)(C(=O)O)C[C@@H](O)[C@H]1O` [PCM-0087069], -10.1%; as for `COc1ccc(-c2coc3cc(O)ccc3c2=O)cc1` [PCM-0087244], 0.8%.
Same read-out and setting: as for `COC(=O)C1=CO[C@@H](O[C@@H]2O[C@H](CO)[C@@H](O)[C@H](O)[C@H]2O)[C@@H]2C(CO)=CC[C@H]12` [PCM-0087450], the figure is -1.6%; as for `COc1ccc(-c2cc(=O)c3c(O)cc(O[C@@H]4O[C@H](CO[C@@H]5O[C@@H](C)[C@H](O)[C@@H](O)[C@H]5O)[C@@H](O)[C@H](O)[C@H]4O)cc3o2)cc1O` [PCM-0087491], -5.1%.
As for `C[C@@H]1O[C@@H](OC[C@H]2O[C@@H](Oc3c(-c4ccc(O)c(O)c4)oc4cc(O)cc(O)c4c3=O)[C@H](O)[C@@H](O)[C@@H]2O)[C@H](O)[C@H](O)[C@H]1O` [PCM-0087529], the inhibition at 10 µM under setting [1] is -2.1%.
For the molecule `O=C1c2c(O)cc(O)cc2O[C@H](c2ccc(O)c(O)c2)[C@H]1O` [PCM-0087882], the inhibition at 10 µM under setting [1] was 11%.
Same read-out and setting: with `COc1c2occc2cc2ccc(=O)oc12` [PCM-0087924] the figure was -19.5%.
On the same count and under the same terms, as for `COc1cc2c(cc1OC)C1Cc3ccc(OC)c(OC)c3CN1CC2` (centres unmarked) [PCM-0088127], the figure is -14%.

The values above are taken from article PMC8041284, “Tunable Methacrylamides for Covalent Ligand Directed Release Chemistry” (Journal of the American Chemical Society, 2021).
